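1) Cells in 96-well plates. 2) Compound, 48 h, 5 concentrations. 3) Linear interpolation between surrounding doses. 4) Unreached endpoint = highest concentration. At the TGI there is no net growth.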
How the values were obtained:
Experiment in all cases: DTP human tumour cell line panel, 48 h
DLD-1 colon = tested on: DLD-1 colon
SN12C renal = tested on: SN12C renal
KM20L2 colon = tested on: KM20L2 colon
TK-10 renal = tested on: TK-10 renal
SK-MEL-5 melanoma = tested on: SK-MEL-5 melanoma
MOLT-4 leukemia = tested on: MOLT-4 leukemia
SF-295 CNS = tested on: SF-295 CNS
HT29 colon = tested on: HT29 colon
SNB-75 CNS = tested on: SNB-75 CNS
LOX IMVI melanoma = tested on: LOX IMVI melanoma
UACC-257 melanoma = tested on: UACC-257 melanoma
IGROV1 ovarian = tested on: IGROV1 ovarian
NCI-H226 lung = tested on: NCI-H226 lung
EKVX NSCLC = tested on: EKVX NSCLC
OVCAR-8 ovarian = tested on: OVCAR-8 ovarian
HL-60(TB) leukemia = tested on: HL-60(TB) leukemia
KM12 colon = tested on: KM12 colon
CCRF-CEM leukemia = tested on: CCRF-CEM leukemia
OVCAR-5 ovarian = tested on: OVCAR-5 ovarian
COLO 205 colon = tested on: COLO 205 colon
SF-539 CNS = tested on: SF-539 CNS
HOP-62 NSCLC = tested on: HOP-62 NSCLC
ACHN renal = tested on: ACHN renal
OVCAR-4 ovarian = tested on: OVCAR-4 ovarian
SNB-19 CNS = tested on: SNB-19 CNS
A498 renal = tested on: A498 renal
UACC-62 melanoma = tested on: UACC-62 melanoma
NCI-H23 lung = tested on: NCI-H23 lung
K-562 leukemia = tested on: K-562 leukemia
RPMI-8226 leukemia = tested on: RPMI-8226 leukemia
SR leukemia = tested on: SR leukemia
SW-620 colon = tested on: SW-620 colon
CAKI-1 renal = tested on: CAKI-1 renal
HOP-92 NSCLC = tested on: HOP-92 NSCLC
786-0 renal = tested on: 786-0 renal
MALME-3M melanoma = tested on: MALME-3M melanoma
OVCAR-3 ovarian = tested on: OVCAR-3 ovarian
PC-3 prostate = tested on: PC-3 prostate
DU-145 prostate = tested on: DU-145 prostate
M14 melanoma = tested on: M14 melanoma
T-47D breast = tested on: T-47D breast
UO-31 renal = tested on: UO-31 renal
HS 578T breast = tested on: HS 578T breast
MDA-MB-231 breast = tested on: MDA-MB-231 breast
HCT-116 colon = tested on: HCT-116 colon
HCT-15 colon = tested on: HCT-15 colon
SK-OV-3 ovarian = tested on: SK-OV-3 ovarian
SF-268 CNS = tested on: SF-268 CNS
BT-549 breast = tested on: BT-549 breast
RXF 393 renal = tested on: RXF 393 renal
NCI-H522 lung = tested on: NCI-H522 lung
MDA-N = tested on: MDA-N
A549 NSCLC = tested on: A549 NSCLC
SK-MEL-28 melanoma = tested on: SK-MEL-28 melanoma
MDA-MB-435 = tested on: MDA-MB-435
MCF7 breast = tested on: MCF7 breast
U251 CNS = tested on: U251 CNS
NCI/ADR-RES ovarian = tested on: NCI/ADR-RES ovarian
SK-MEL-2 melanoma = tested on: SK-MEL-2 melanoma
NCI-H460 lung = tested on: NCI-H460 lung
HCC-2998 colon = tested on: HCC-2998 colon

With `COC(=O)/C(=N\NC(C)(C)C)C(C(=O)C(=O)Nc1cc(C)ccc1C)c1nc2ccccc2[nH]c1=O` (stereo not drawn) the TGI (DLD-1 colon) was greater than 100 µM, the TGI (SN12C renal) was greater than 100 µM and the TGI (KM20L2 colon) was greater than 100 µM. The TGI (TK-10 renal) was greater than 100 µM, the TGI (SK-MEL-5 melanoma) was greater than 100 µM and the TGI (MOLT-4 leukemia) was greater than 100 µM. The TGI (SF-295 CNS) was greater than 100 µM, the TGI (HT29 colon) was greater than 100 µM and the TGI (SNB-75 CNS) was greater than 100 µM. It also gave a TGI (LOX IMVI melanoma) greater than 100 µM, a TGI (UACC-257 melanoma) greater than 100 µM and a TGI (IGROV1 ovarian) greater than 100 µM. It also gave a TGI (NCI-H226 lung) greater than 100 µM, a TGI (EKVX NSCLC) greater than 100 µM and a TGI (OVCAR-8 ovarian) greater than 100 µM. It also gave a TGI (HL-60(TB) leukemia) greater than 100 µM, a TGI (KM12 colon) greater than 100 µM and a TGI (CCRF-CEM leukemia) greater than 100 µM. It also gave a TGI (OVCAR-5 ovarian) greater than 100 µM, a TGI (COLO 205 colon) greater than 100 µM and a TGI (SF-539 CNS) greater than 100 µM. The TGI (HOP-62 NSCLC) was greater than 100 µM, the TGI (ACHN renal) was greater than 100 µM and the TGI (OVCAR-4 ovarian) was greater than 100 µM. For the same molecule, the TGI (SNB-19 CNS) was greater than 100 µM, the TGI (A498 renal) was greater than 100 µM and the TGI (UACC-62 melanoma) was greater than 100 µM. It also gave a TGI (NCI-H23 lung) greater than 100 µM, a TGI (K-562 leukemia) greater than 100 µM and a TGI (RPMI-8226 leukemia) greater than 100 µM. The TGI (SR leukemia) was greater than 100 µM, the TGI (SW-620 colon) was greater than 100 µM and the TGI (CAKI-1 renal) was greater than 100 µM. For the same molecule, the TGI (HOP-92 NSCLC) was greater than 100 µM.

`O=[N+]([O-])c1ccc(NC(=S)N=Nc2c(O)[nH]c3ccc([N+](=O)[O-])cc23)cc1` gave a TGI (SN12C renal) greater than 100 µM, a TGI (TK-10 renal) of 56.7 µM and a TGI (786-0 renal) of 32.3 µM. The TGI (MALME-3M melanoma) was 55.5 µM, the TGI (SK-MEL-5 melanoma) was 30.7 µM and the TGI (OVCAR-3 ovarian) was 47.5 µM. For the same molecule, the TGI (MOLT-4 leukemia) was greater than 100 µM, the TGI (SF-295 CNS) was 45.1 µM and the TGI (PC-3 prostate) was 49.3 µM. The TGI (DU-145 prostate) was 49 µM, the TGI (M14 melanoma) was 41.9 µM and the TGI (T-47D breast) was 63.1 µM. For the same molecule, the TGI (HT29 colon) was 65.6 µM, the TGI (SNB-75 CNS) was 42.8 µM and the TGI (LOX IMVI melanoma) was 49.1 µM. It also gave a TGI (UO-31 renal) of 45.1 µM, a TGI (HS 578T breast) greater than 100 µM and a TGI (UACC-257 melanoma) of 50.3 µM. The TGI (MDA-MB-231 breast) was 45 µM, the TGI (HCT-116 colon) was 46.3 µM and the TGI (IGROV1 ovarian) was 40 µM. The TGI (NCI-H226 lung) was 86.5 µM, the TGI (EKVX NSCLC) was 63.6 µM and the TGI (HCT-15 colon) was 46.8 µM. The TGI (OVCAR-8 ovarian) was greater than 100 µM, the TGI (HL-60(TB) leukemia) was 73.1 µM and the TGI (SK-OV-3 ovarian) was 41.8 µM. For the same molecule, the TGI (KM12 colon) was 37.6 µM, the TGI (CCRF-CEM leukemia) was 60.4 µM and the TGI (OVCAR-5 ovarian) was 68 µM. The TGI (SF-268 CNS) was 72.4 µM, the TGI (COLO 205 colon) was greater than 100 µM and the TGI (BT-549 breast) was 33.7 µM. It also gave a TGI (SF-539 CNS) greater than 100 µM, a TGI (RXF 393 renal) of 37.1 µM and a TGI (NCI-H522 lung) of 60.5 µM. For the same molecule, the TGI (MDA-N) was 41.7 µM, the TGI (HOP-62 NSCLC) was 50.4 µM and the TGI (ACHN renal) was 74 µM. The TGI (A549 NSCLC) was 48.1 µM, the TGI (OVCAR-4 ovarian) was 40.8 µM and the TGI (SNB-19 CNS) was 69.3 µM. For the same molecule, the TGI (A498 renal) was 32.7 µM, the TGI (SK-MEL-28 melanoma) was 80.7 µM and the TGI (UACC-62 melanoma) was 49.1 µM. The TGI (MDA-MB-435) was 38.7 µM, the TGI (MCF7 breast) was 84.1 µM and the TGI (NCI-H23 lung) was 41.1 µM. For the same molecule, the TGI (K-562 leukemia) was greater than 100 µM, the TGI (U251 CNS) was 50.8 µM and the TGI (RPMI-8226 leukemia) was greater than 100 µM. For the same molecule, the TGI (SR leukemia) was greater than 100 µM, the TGI (SW-620 colon) was greater than 100 µM and the TGI (CAKI-1 renal) was 43.2 µM. It also gave a TGI (NCI/ADR-RES ovarian) of 48.6 µM, a TGI (SK-MEL-2 melanoma) of 35.8 µM and a TGI (NCI-H460 lung) of 41.9 µM. The TGI (HCC-2998 colon) was 35.9 µM and the TGI (HOP-92 NSCLC) was 35.2 µM.

From PubChem BioAssay (NCI)
